Source: patent US20230233569A1 (Revolution Medicines, Inc., priority 2020, published 2023)

Columns and labels:
Assay in all cases: Ras-Raf disruption / FRET / MOA assay (BRAF RBD)
Assay type in all cases: biochemical
[1] = target: KRAS G12C (Homo sapiens, UniProt P01116+P62937, G12C); settings: Ras-Raf disruption, with Cyclophilin A; read-out: KRAS G12C FRET data IC50
Method in brief: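 TR-FRET read-out after 1.5 h with anti-His Eu-W1024 (10 nM) and anti-GST APC (50 nM), following 3 h at 25 °C of compound (top 30 μM, 3-fold, 10 points) with 25 μM Cyclophilin A, 12.5 nM GMPPNP-loaded K-Ras G12C and 50 nM BRAF RBD; IC50 reported.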

[2] = target: KRAS G13C (Homo sapiens, UniProt P01116+P62937, G13C); settings: Ras-Raf disruption, with Cyclophilin A; read-out: KRAS G13C FRET data IC50
Method in brief: (§1)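 Compound-induced Ras–Cyclophilin A ternary complex disrupting BRAF RBD binding, read as IC50 from reduced TR-FRET ratio relative to DMSO. Final: Ras-GMPPNP 12.5 nM, BRAF RBD 50 nM, Cyclophilin A 25 μM, top compound 30 μM (3-fold, 10 points); 3 h at 25 °C, then 1.5 h with detection antibodies.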

[3] = target: KRAS G12D (Homo sapiens, UniProt P01116+P62937, G12D); settings: Ras-Raf disruption, with Cyclophilin A; read-out: KRAS G12D FRET data IC50
Method in brief: as §1

[4] = target: KRAS WT (Homo sapiens, UniProt P01116+P62937); settings: Ras-Raf disruption, with Cyclophilin A; read-out: KRAS WT FRET data IC50
Method in brief: as §1

[5] = target: NRAS Q61K (Homo sapiens, UniProt P01111+P62937, Q61K); settings: NRAS Q61K; read-out: NRAS Q61K FRET data IC50
Method in brief: as §1

[6] = target: KRAS Q61H (Homo sapiens, UniProt P01116+P62937, Q61H); settings: KRAS Q61H; read-out: KRAS Q61H FRET data IC50
Method in brief: as §1

[7] = target: KRAS G12V (Homo sapiens, UniProt P01116+P62937, G12V); settings: Ras-Raf disruption, with Cyclophilin A; read-out: KRAS G12V FRET data IC50
Method in brief: as §1

[8] = target: NRAS G12C (Homo sapiens, UniProt P01111+P62937, G12C); settings: NRAS G12C; read-out: NRAS G12C FRET data IC50
Method in brief: as §1

[9] = target: NRAS Q61R (Homo sapiens, UniProt P01111+P62937, Q61R); settings: NRAS Q61R; read-out: NRAS Q61R FRET data IC50
Method in brief: as §1

[10] = target: NRAS WT (Homo sapiens, UniProt P01111+P62937); settings: NRAS WT; read-out: NRAS WT FRET data IC50
Method in brief: as §1

[11] = target: KRAS G13D (Homo sapiens, UniProt P01116+P62937, G13D); settings: Ras-Raf disruption, with Cyclophilin A; read-out: KRAS G13D FRET data IC50
Method in brief: as §1

[12] = target: KRAS G12S (Homo sapiens, UniProt P01116+P62937, G12S); settings: Ras-Raf disruption, with Cyclophilin A; read-out: KRAS G12S FRET data IC50
Method in brief: as §1

Chain of KRAS Q61H (P01116 1-169 isoform P01116-2 Q61H limits assumed): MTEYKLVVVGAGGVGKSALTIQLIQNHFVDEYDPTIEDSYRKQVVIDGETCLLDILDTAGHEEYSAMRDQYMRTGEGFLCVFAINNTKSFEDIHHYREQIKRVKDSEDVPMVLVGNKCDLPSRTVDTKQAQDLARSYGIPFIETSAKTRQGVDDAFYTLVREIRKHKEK
Chain of KRAS Q61H (P62937 whole entry): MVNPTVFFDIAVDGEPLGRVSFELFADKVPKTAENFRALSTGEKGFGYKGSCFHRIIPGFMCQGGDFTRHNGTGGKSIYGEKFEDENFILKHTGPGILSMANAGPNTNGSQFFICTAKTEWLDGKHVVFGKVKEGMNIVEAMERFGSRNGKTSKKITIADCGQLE
Chain of NRAS G12C (P01111 whole entry G12C): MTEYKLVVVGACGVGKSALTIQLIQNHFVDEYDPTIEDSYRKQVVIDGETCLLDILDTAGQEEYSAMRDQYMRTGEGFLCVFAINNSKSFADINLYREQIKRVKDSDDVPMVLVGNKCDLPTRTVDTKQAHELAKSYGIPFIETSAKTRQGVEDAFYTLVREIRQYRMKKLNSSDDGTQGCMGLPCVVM
Chain of NRAS G12C (P62937 whole entry): as the sequence (P62937 whole entry) above
Chain of KRAS G12S (P01116 1-169 isoform P01116-2 G12S limits assumed): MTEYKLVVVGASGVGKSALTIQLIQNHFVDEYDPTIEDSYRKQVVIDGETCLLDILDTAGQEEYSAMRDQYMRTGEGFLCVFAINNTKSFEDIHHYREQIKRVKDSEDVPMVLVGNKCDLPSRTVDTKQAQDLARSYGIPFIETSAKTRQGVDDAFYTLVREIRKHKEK
Chain of KRAS G12S (P62937 whole entry): as the sequence (P62937 whole entry) above
Chain of KRAS G12V (P01116 1-169 isoform P01116-2 G12V limits assumed): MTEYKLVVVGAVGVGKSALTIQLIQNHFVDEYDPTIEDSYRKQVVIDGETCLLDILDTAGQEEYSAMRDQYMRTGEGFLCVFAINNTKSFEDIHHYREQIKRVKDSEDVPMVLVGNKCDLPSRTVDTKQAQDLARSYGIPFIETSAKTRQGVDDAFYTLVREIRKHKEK
Chain of KRAS G12V (P62937 whole entry): as the sequence (P62937 whole entry) above
Chain of KRAS G13D (P01116 1-169 isoform P01116-2 G13D limits assumed): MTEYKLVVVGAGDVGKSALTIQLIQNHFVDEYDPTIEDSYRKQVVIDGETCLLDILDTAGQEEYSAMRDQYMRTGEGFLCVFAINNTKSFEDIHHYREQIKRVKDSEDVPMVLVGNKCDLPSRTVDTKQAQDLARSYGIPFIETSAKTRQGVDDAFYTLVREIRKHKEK
Chain of KRAS G13D (P62937 whole entry): as the sequence (P62937 whole entry) above
Chain of KRAS G12C (P01116 1-169 isoform P01116-2 G12C limits assumed): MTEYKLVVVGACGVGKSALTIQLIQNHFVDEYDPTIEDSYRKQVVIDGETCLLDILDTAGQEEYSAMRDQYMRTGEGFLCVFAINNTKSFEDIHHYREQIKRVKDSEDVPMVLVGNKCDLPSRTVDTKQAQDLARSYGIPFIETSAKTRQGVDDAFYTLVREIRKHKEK
Chain of KRAS G12C (P62937 whole entry): as the sequence (P62937 whole entry) above
Chain of NRAS Q61R (P01111 whole entry Q61R): as the sequence (P01111 whole entry G12C) above, with C12G, Q61R counted along it
Chain of NRAS Q61R (P62937 whole entry): as the sequence (P62937 whole entry) above
Chain of KRAS WT (P01116 1-169 isoform P01116-2 limits assumed): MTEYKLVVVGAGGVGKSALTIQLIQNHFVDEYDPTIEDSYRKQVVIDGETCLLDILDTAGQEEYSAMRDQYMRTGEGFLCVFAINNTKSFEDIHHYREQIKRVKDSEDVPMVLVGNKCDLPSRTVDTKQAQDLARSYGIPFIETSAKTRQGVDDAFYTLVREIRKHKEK
Chain of KRAS WT (P62937 whole entry): as the sequence (P62937 whole entry) above
Chain of NRAS Q61K (P01111 whole entry Q61K): as the sequence (P01111 whole entry G12C) above, with C12G, Q61K counted along it
Chain of NRAS Q61K (P62937 whole entry): as the sequence (P62937 whole entry) above
Chain of KRAS G13C (P01116 1-169 isoform P01116-2 G13C limits assumed): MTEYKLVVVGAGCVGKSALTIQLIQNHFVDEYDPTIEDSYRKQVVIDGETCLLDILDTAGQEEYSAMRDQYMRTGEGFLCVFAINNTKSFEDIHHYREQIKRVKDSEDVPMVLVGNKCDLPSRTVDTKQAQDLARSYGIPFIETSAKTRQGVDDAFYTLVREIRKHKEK
Chain of KRAS G13C (P62937 whole entry): as the sequence (P62937 whole entry) above
Chain of KRAS G12D (P01116 1-169 isoform P01116-2 G12D limits assumed): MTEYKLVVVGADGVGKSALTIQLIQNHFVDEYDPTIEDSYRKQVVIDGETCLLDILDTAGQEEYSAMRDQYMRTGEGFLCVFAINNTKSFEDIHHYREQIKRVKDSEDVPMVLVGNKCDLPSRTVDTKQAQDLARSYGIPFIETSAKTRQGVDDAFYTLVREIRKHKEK
Chain of KRAS G12D (P62937 whole entry): as the sequence (P62937 whole entry) above
Chain of NRAS WT (P01111 whole entry): as the sequence (P01111 whole entry G12C) above, with C12G counted along it
Chain of NRAS WT (P62937 whole entry): as the sequence (P62937 whole entry) above

In the case of CCn1c(-c2cccnc2[C@H](C)OC)c2c3cc(ccc31)-c1cc(O)cc(c1)C[C@H](NC(=O)[C@H](C(C)C)N(C)C(=O)N1CC[C@H](N(C)C(=O)[C@@H]3CN3)C1)C(=O)N1CCC[C@H](N1)C(=O)OCC(C)(C)C2 (atropisomer, axis not shown) [Example 255], the IC50 [1] is reported as 10 to 100 nM, the IC50 [2] is reported as 10 to 100 nM and the IC50 [3] is reported as 100 to 1000 nM. It also gave an IC50 [4] of 100 to 1000 nM, an IC50 [5] of 100 to 1000 nM and an IC50 [6] of 10 to 100 nM. The IC50 [7] was 100 to 1000 nM, the IC50 [8] was 10 to 100 nM and the IC50 [9] was 100 to 1000 nM. The IC50 [10] was 10 to 100 nM, the IC50 [11] was 100 to 1000 nM and the IC50 [12] was 10 to 100 nM.

For CCn1c(-c2cccnc2[C@H](C)OC)c2c3cc(ccc31)-c1cc(O)cc(c1)C[C@H](NC(=O)[C@H](C(C)C)N(C)C(=O)CN(C)C(=O)[C@H]1C[C@@H]3N[C@@H]3C1)C(=O)N1CCC[C@H](N1)C(=O)OCC(C)(C)C2 (atropisomer, axis not shown) [Example 285], the IC50 [1] was 10 to 100 nM, the IC50 [2] was under 10 nM and the IC50 [3] was 10 to 100 nM. For the same compound, the IC50 [4] was 10 to 100 nM, the IC50 [5] was 100 to 1000 nM and the IC50 [6] was 10 to 100 nM. It also gave an IC50 [7] of 10 to 100 nM, an IC50 [8] of 10 to 100 nM and an IC50 [9] of 100 to 1000 nM. For the same compound, the IC50 [10] was 10 to 100 nM, the IC50 [11] was 10 to 100 nM and the IC50 [12] was 10 to 100 nM.

For CCn1c(-c2cccnc2[C@H](C)OC)c2c3cc(ccc31)-c1cc(O)cc(c1)C[C@H](NC(=O)[C@H](C(C)C)N(C)C(=O)[C@H]1C[C@@H]3N[C@@H]3C1)C(=O)N1CCC[C@H](N1)C(=O)OCC(C)(C)C2 (atropisomer, axis not shown) [Example 286], the IC50 [1] was 100 to 1000 nM, the IC50 [2] was 10 to 100 nM and the IC50 [3] was 100 to 1000 nM. For the same compound, the IC50 [4] was 100 to 1000 nM, the IC50 [5] was 100 to 1000 nM and the IC50 [6] was 10 to 100 nM. For the same compound, the IC50 [7] was 100 to 1000 nM, the IC50 [8] was 100 to 1000 nM and the IC50 [9] was 100 to 1000 nM. It also gave an IC50 [10] of 100 to 1000 nM, an IC50 [11] of 10 to 100 nM and an IC50 [12] of 100 to 1000 nM.

With CCn1c(-c2cccnc2[C@H](C)OC)c2c3cc(ccc31)-c1csc(n1)C[C@H](NC(=O)[C@H](C(C)C)N(C)C(=O)N1CCC[C@H](N(C)C(=O)[C@@H]3CN3)C1)C(=O)N1CCC[C@H](N1)C(=O)OCC(C)(C)C2 (atropisomer, axis not shown) [Example 292] the IC50 [1] was 100 to 1000 nM, the IC50 [2] was 100 to 1000 nM and the IC50 [3] was 1000 to 10000 nM. It also gave an IC50 [4] of 100 to 1000 nM, an IC50 [5] of 100 to 1000 nM and an IC50 [6] of 100 to 1000 nM. It also gave an IC50 [7] of 100 to 1000 nM, an IC50 [8] of 100 to 1000 nM and an IC50 [9] of 100 to 1000 nM. The IC50 [10] was 100 to 1000 nM, the IC50 [11] was 1000 to 10000 nM and the IC50 [12] was 100 to 1000 nM.

For CCn1c(-c2cccnc2[C@H](C)OC)c2c3cc(ccc31)-c1csc(n1)C[C@H](NC(=O)[C@H](C(C)C)N(C)C(=O)N(C)CC1CN(C(=O)[C@H]3CN3)C1)C(=O)N1CCC[C@H](N1)C(=O)OCC(C)(C)C2 (atropisomer, axis not shown) [Example 293], the IC50 [1] was 10 to 100 nM, the IC50 [2] was 100 to 1000 nM and the IC50 [3] was 100 to 1000 nM. The IC50 [4] was 100 to 1000 nM, the IC50 [5] was 10 to 100 nM and the IC50 [6] was 10 to 100 nM. For the same compound, the IC50 [7] was 100 to 1000 nM, the IC50 [8] was 10 to 100 nM and the IC50 [9] was 100 to 1000 nM. For the same compound, the IC50 [10] was 100 to 1000 nM, the IC50 [11] was 100 to 1000 nM and the IC50 [12] was 100 to 1000 nM.

For CCn1c(-c2cccnc2[C@H](C)OC)c2c3cc(ccc31)-c1csc(n1)C[C@H](NC(=O)[C@H](C(C)C)N(C)C(=O)N(C)CC1CN(C(=O)[C@@H]3CN3)C1)C(=O)N1CCC[C@H](N1)C(=O)OCC(C)(C)C2 (atropisomer, axis not shown) [Example 294], the IC50 [1] was 10 to 100 nM, the IC50 [2] was 100 to 1000 nM and the IC50 [3] was 100 to 1000 nM. For the same compound, the IC50 [4] was 100 to 1000 nM, the IC50 [5] was 10 to 100 nM and the IC50 [6] was 10 to 100 nM. The IC50 [7] was 100 to 1000 nM, the IC50 [8] was 10 to 100 nM and the IC50 [9] was 100 to 1000 nM. For the same compound, the IC50 [10] was 100 to 1000 nM, the IC50 [11] was 100 to 1000 nM and the IC50 [12] was 100 to 1000 nM.
